Results reported in ChEMBL document CHEMBL4402529, “Immunoproteasome-selective inhibitors: An overview of recent developments as potential drugs for hematologic malignancies and autoimmune diseases” (Eur J Med Chem, 2019).
Each block holds one molecule with its values, some of them ahead of it.

Key:
Homo sapiens [1] = species on record: Homo sapiens; experiment: Selectivity index, ratio of IC50 for 20S proteasome beta 5c (unknown origin) to IC50 for 20S proteasome beta 5i (unknown origin)
[2] = biological target: T1, Proteasome subunit beta type-8 (Homo sapiens, UniProt P28062); experiment: Inhibition of 20S proteasome beta 5i (unknown origin) after 1 hr by cell based assay
T1 sequence (P28062 whole entry): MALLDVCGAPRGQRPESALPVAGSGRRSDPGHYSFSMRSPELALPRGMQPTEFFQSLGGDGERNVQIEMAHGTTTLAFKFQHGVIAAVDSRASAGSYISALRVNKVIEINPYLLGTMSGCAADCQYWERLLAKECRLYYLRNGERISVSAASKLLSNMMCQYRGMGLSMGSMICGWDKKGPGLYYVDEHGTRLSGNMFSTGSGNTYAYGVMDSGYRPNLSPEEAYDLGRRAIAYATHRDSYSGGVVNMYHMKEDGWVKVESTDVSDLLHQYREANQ

[3] = biological target: T2, Proteasome Macropain subunit MB1 (Homo sapiens, UniProt P28074); experiment: Inhibition of 20S proteasome beta 5c (unknown origin) after 1 hr by cell based assay
T2 sequence (P28074 whole entry): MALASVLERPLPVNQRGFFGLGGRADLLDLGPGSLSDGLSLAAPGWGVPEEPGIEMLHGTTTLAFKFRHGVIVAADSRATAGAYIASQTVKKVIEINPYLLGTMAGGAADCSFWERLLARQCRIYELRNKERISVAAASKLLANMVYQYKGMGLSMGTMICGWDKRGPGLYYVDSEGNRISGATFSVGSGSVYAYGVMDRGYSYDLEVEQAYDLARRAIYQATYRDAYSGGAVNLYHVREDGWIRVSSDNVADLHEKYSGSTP

Homo sapiens [4] = species on record: Homo sapiens; experiment: Selectivity index, ratio of IC50 for 20S proteasome beta 1c (unknown origin) to IC50 for 20S proteasome beta 1i (unknown origin)
[5] = biological target: T3, Proteasome subunit beta type-9 (Homo sapiens, UniProt P28065); experiment: Inhibition of 20S proteasome beta 1i (unknown origin)
T3 sequence (P28065 whole entry): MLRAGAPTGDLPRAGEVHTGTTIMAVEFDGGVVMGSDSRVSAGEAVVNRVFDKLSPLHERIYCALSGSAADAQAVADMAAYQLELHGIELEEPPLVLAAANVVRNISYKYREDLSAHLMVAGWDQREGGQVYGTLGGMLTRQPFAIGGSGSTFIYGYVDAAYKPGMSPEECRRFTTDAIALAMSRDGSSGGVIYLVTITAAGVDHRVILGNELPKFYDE

[6] = Inhibition of 20S proteasome beta 2c (unknown origin)
[7] = biological target: T2, Proteasome Macropain subunit MB1; experiment: Inhibition of human 20S proteasome beta 5c
[8] = biological target: T1, Proteasome subunit beta type-8; experiment: Inhibition of human 20S proteasome beta 5i
Homo sapiens [9] = species on record: Homo sapiens; experiment: Selectivity index, ratio of IC50 for human 20S proteasome beta 5c to IC50 for human 20S proteasome beta 5i
[10] = biological target: T1, Proteasome subunit beta type-8; experiment: Inhibition of 20S proteasome beta 5i (unknown origin) after 1 hr by fluorescence based assay
[11] = biological target: T2, Proteasome Macropain subunit MB1; experiment: Inhibition of 20S proteasome beta 5c (unknown origin) after 1 hr by fluorescence based assay
Homo sapiens [12] = species on record: Homo sapiens; experiment: Selectivity index, ratio of IC50 for 20S proteasome beta 2c (unknown origin) to IC50 for 20S proteasome beta 2i (unknown origin)
[13] = biological target: T4, Proteasome subunit beta type-10 (Homo sapiens, UniProt P40306); experiment: Inhibition of 20S proteasome beta 2i (unknown origin) after 1 hr by fluorescence based assay
T4 sequence (P40306 whole entry): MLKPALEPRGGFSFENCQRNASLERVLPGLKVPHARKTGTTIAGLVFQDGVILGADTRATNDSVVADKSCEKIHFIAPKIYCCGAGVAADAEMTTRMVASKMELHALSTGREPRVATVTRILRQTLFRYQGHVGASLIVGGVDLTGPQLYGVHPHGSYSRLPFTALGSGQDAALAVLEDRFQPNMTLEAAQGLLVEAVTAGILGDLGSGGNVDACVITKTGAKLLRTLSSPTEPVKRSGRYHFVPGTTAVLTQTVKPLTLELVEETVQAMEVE

[14] = biological target: T3, Proteasome subunit beta type-9; experiment: Inhibition of 20S proteasome beta 1i (unknown origin) after 1 hr by fluorescence based assay

Ratio IC50 (Homo sapiens [1]): 64
SMILES: CC(C)(C)NC(=O)C[C@H](NS(=O)(=O)C1CC1)C(=O)NCCNC(=O)c1cc(-c2ccccc2F)ccc1F

IC50 [2]: 14 nM
IC50 [3]: 78.2 µM
Ratio IC50 (Homo sapiens [1]): 5600
SMILES: Cc1ccc(S(=O)(=O)N[C@H](CC(=O)N[C@@H](C)C(=O)NCc2cccc3ccccc23)CC(=O)NC(C)(C)C)cc1

Ratio IC50 (Homo sapiens [4]): > 14
Ratio IC50 (Homo sapiens [1]): 79
SMILES: COc1ccc(C[C@H](NC(=O)[C@@H](C)NC(=O)[C@H]2CC[C@H](O)CC2)C(=O)N[C@@H](CC2=CCCC2)C(=O)[C@@]2(C)CO2)cc1

IC50 [2]: 57 nM
IC50 [3]: 76 µM
Ratio IC50 (Homo sapiens [1]): 1330
SMILES: C[C@@H](CC(=O)NCc1cccc2ccccc12)NC(=O)[C@H](CC(=O)NC(C)(C)C)NC(=O)CCc1ccccc1

Ratio IC50 (Homo sapiens [1]): 28
SMILES: Cc1ccc(S(=O)(=O)N[C@@H](CC(=O)NC(C)(C)C)C(=O)NCCNC(=O)c2cc(-c3ccccc3F)ccc2F)cc1

IC50 [5]: 425 nM
Ratio IC50 (Homo sapiens [4]): > 602
IC50 [6]: 81 nM
Ratio IC50 (Homo sapiens [1]): 0.8
SMILES: CC(C)C[C@H](NC(=O)CN1CCCCCC1)C(=O)N[C@@H](Cc1ccccc1)C(=O)N[C@@H](Cc1ccccc1)C(=O)[C@@]1(C)CO1

IC50 [2]: 5.5 nM
IC50 [3]: 74.9 µM
Ratio IC50 (Homo sapiens [1]): 13600
SMILES: Cc1ccc(S(=O)(=O)N[C@@H](CC(=O)NC(C)(C)C)C(=O)N[C@@H](C)CC(=O)NCc2cccc3ccccc23)cc1

IC50 [7]: 172000 nM
IC50 [8]: 1600 nM
Ratio IC50 (Homo sapiens [9]): 108
SMILES: Cc1c(CCC(=O)O)c(=O)oc2cc3occ(-c4ccccc4)c3cc12

IC50 [8]: 120 nM
Ratio IC50 (Homo sapiens [9]): > 80
SMILES: Cc1c(Cc2nsc(=O)o2)c(=O)oc2cc3occ(-c4ccccc4)c3cc12

IC50 [10]: 39 nM
IC50 [11]: 688 nM
Ratio IC50 (Homo sapiens [4]): 0.97
Ratio IC50 (Homo sapiens [12]): > 80.9
Ratio IC50 (Homo sapiens [1]): 17.6
SMILES: COc1ccc([C@@H](O)[C@H](NC(=O)[C@H](C)NC(=O)CN2CCOCC2)C(=O)N[C@@H](CC2=CCCC2)C(=O)[C@@]2(C)CO2)cc1 [ZETOMIPZOMIB]

IC50 [7]: 1070 nM
IC50 [8]: 13 nM
Ratio IC50 (Homo sapiens [9]): 83
SMILES: Cc1c(C2CCCC2)c(=O)oc2cc3occ(-c4ccccc4)c3cc12

IC50 [7]: 220 nM
IC50 [8]: 9 nM
Ratio IC50 (Homo sapiens [9]): 24
SMILES: Cc1c(CCC(=O)ON2C(=O)CCC2=O)c(=O)oc2cc3occ(-c4ccccc4)c3cc12

IC50 [10]: 3 to 20 nM
IC50 [13]: 10 to 30 nM
IC50 [14]: 1 to 3 nM
IC50 [11]: 3 to 20 nM
SMILES: CC(C)C[C@H](NC(=O)[C@@H](NC(=O)c1cccc(-c2ccccc2)n1)[C@@H](C)O)B(O)O [DELANZOMIB]
